Experimental data as given in patent US20110054040A1, “Bicyclic Triterpenoid Iripallidal as a Novel Anti-Glioma and Anti-Neoplastic Therapy” (DEPARTMENT OF BIOTECHNOLOGY, priority 2008, published 2011).
Read-outs that look alike come from different tables or passages of the source.

Columns and labels:
[1] = test system: U87MG, A172, LN229 and T98G cells; assay: MTS cell viability assay, glioma cell lines; format: cell-based, human; conditions: 24 hours, serum free media, in vitro
Experimental: In another embodiment GBM cell lines U87MG, A172, T98G, and LN229 were treated with different concentration of Iripallidal (in Dimethyl sulphoxide, DMSO) in serum free media for 24 hours and cell viability was assessed using the [3-(4,5-dimethylthiazol-2-yl)-5-(3-carboxymethoxy-phenyl)-2-(4-sulfophenyl)-2H-tetrazolium, inner salt] (MTS) assay. Values were expressed as percent cell viability relative to control.
(§1) Glioblastoma cell lines U87MG, A172, T98G, and LN229; breast cancer cell line MCF7, cervical cancer cell line HeLa, hepatocellular carcinoma cell line HepG2, acute myeloid leukemia THP1, colon carcinoma cell line HT-29 and acute myeloid leukemic cell line THP1 were obtained from American Type Culture Collection and cultured in DMEM supplemented with 10% fetal bovine serum. On attaining semi-confluence, cells were switched to serum free media and after 12 hours, cells were treated with different concentration of Iripallidal (in DMSO) in serum free media for 24 hours. Following treatment, the cells were processed for Western blot analysis. […]
(§2) Cell viability was assessed using the [3-(4,5-dimethylthiazol-2-yl)-5-(3-carboxymethoxy-phenyl)-2-(4-sulfophenyl)-2H-tetrazolium, inner salt] […] After 4 hours of incubation the absorbance reflecting reduction of MTS by viable cells was determined at 490 nm. Values were expressed as a percentage relative to those obtained in controls.

[2] = test system: Ras; assay: Ras activity (Ras-GTP pull-down with Raf-1 Ras binding domain) in glioma cells; format: cell-based, human; conditions: Iripallidal 20 μM, compared to the control
Experimental: In another embodiment the Ras activity was performed using a commercially available kit from Upstate Biotechnology (Temecula, Calif., USA). Briefly, glioma cell lines (2×10^6) treated with Iripallidal were lysed and the cleared lysates were incubated with bead-bound RAS binding domain of Raf-1 protein to precipitate Ras-GTP. The precipitates were subjected to SDS-PAGE and Western blotting.
Effect of Iripallidal on the level of GTP-bound Ras. The level of Ras-GTP in protein extracts of control and Iripallidal treated glioma cells was determined by the ability of Ras-GTP to bind to a specific protein domain of Raf in the form of a GST-fusion protein. […] IR1 denotes Iripallidal.

[3] = test system: Ras; assay: Western blot analysis of Ras expression in glioma cells; format: cell-based, human; conditions: GBM cell lines (A172, U87MG); Iripallidal 20 μM
Experimental: In another embodiment, protein isolated from glioma cells were treated with Iripallidal and electrophoresed on 6% to 10% polyacrylamide gel, Western blotting was performed and expression of Ras determined as described previously.
Glioblastoma cell lines U87MG, A172, T98G, and LN229; breast cancer cell line MCF7, cervical cancer cell line HeLa, hepatocellular carcinoma cell line HepG2, acute myeloid leukemia THP1, colon carcinoma cell line HT-29 and acute myeloid leukemic cell line THP1 were obtained from American Type Culture Collection and cultured in DMEM supplemented with 10% fetal bovine serum. On attaining semi-confluence, cells were switched to serum free media and after 12 hours, cells were treated with different concentration of Iripallidal (in DMSO) in serum free media for 24 hours. Following treatment, the cells were processed for Western blot analysis. DMSO treated cells were used as controls.
Protein from whole cell lysates were isolated as described previously. Twenty to fifty μg of protein isolated from cells treated with Iripallidal was electrophoresed on 6% to 10% polyacrylamide gel. Western blotting was performed and Ras expression was determined as described. The blots were stripped and reprobed with anti-β-actin to determine equivalent loading.

[4] = test system: MCF-7, HeLa, HepG2, THP1, HT-29 cells; assay: MTS cell viability assay, breast, cervical, hepatocellular, myeloid leukemia and colon cancer cell lines; format: cell-based, human
Experimental: In another embodiment colon cancer cell line HT29, breast cancer line MCF-7, cervical cancer cell line HeLa, hepatocellular carcinoma cell line HepG2 and acute myeloid leukemic cell line THP1 were treated with different concentration of Iripallidal (in Dimethyl sulphoxide, DMSO) in serum free media for 24 hours and cell viability was assessed using the MTS assay. Values were expressed as a percentage relative to those obtained in controls.
as §1, with “hours.” for “hours. Following treatment, the cells were processed for Western blot analysis.”
as §2

[5] = target: protein kinase C alpha (Homo sapiens, UniProt P17252); conditions: cited from earlier work
[6] = target: T1, RasGRP3 (Homo sapiens, UniProt Q8IV61); conditions: cited from earlier work
T1 sequence (Q8IV61 1-690): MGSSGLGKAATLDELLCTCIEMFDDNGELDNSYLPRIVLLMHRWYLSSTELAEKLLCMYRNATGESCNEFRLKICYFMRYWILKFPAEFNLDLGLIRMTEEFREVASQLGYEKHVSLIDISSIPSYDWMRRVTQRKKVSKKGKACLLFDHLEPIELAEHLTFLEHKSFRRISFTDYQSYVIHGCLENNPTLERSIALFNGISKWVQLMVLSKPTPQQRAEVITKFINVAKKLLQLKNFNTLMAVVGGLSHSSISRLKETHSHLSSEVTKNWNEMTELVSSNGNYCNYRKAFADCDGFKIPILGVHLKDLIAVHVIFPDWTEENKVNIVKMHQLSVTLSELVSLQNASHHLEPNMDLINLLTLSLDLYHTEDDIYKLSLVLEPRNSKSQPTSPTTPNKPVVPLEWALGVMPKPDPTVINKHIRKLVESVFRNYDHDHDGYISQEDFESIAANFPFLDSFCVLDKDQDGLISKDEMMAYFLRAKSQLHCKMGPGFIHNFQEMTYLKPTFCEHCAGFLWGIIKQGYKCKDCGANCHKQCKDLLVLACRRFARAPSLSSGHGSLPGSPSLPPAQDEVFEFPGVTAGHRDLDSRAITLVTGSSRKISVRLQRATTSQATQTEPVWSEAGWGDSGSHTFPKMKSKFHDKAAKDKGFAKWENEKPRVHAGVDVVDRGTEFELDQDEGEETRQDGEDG

[7] = test system: normal human monocytes; assay: MTS cell viability assay, normal human monocytes; format: cell-based; conditions: 24 hours, serum free media
Experimental: In another embodiment normal human monocytes were treated with different concentration of Iripallidal in serum free media for 24 hours and cell viability was assessed using the MTS assay. Values were expressed as a percentage relative to those obtained in controls.
Whole blood (5 ml) was drawn from normal human volunteers and mononuclear cells were separated by Histopaque density gradient centrifugation. Briefly, blood was diluted twice with phosphate buffered saline (PBS) and layered over Histopaque (Sigma, Mo., USA) and centrifuged at 1500 rpm for 20 mins at room temperature. Peripheral blood mononuclear cells (PBMC) were collected carefully at the interface of Histopaque and plasma, diluted five times with PBS and centrifuged at 1500 rpm for 10 mins. PBMC thus pelleted were washed twice with PBS and seeded onto glass petri dishes and allowed to adhere for 3 hrs. Non adherent cells were removed by gentle washing with PBS twice and the adherent monocytes were used in MTS assay.
as §2, with “salt] (MTS) as described earlier.” for “salt]”

[8] = test system: panel of 60 human cancer cell lines; conditions: NCI 60 cell line screen; cited from earlier work
[9] = test system: ERK1/2; conditions: downstream indicator of Ras activation, cited from earlier work

Structure (SMILES)	viability of glioblastoma cell lines [1]	Ras activity (Ras-GTP level) [2]	Ras levels [3]	proliferation of breast, colon, cervical, liver and myeloid cancer cells ([4]; 24 hours, serum free media)	reduction of proliferation of cancer cell lines ([4]; cancer cell lines, not specified further)	binding to protein kinase C alpha [5]	binding to RasGRP3 [6]	binding to RasGRP3 ([6]; listed as NSC 631939)	viability of normal human monocytes [7]	anti-proliferative activity [8]	phosphorylation of ERK1/2 [9]	phosphorylation of ERK1/2 ([9]; listed as NSC 631939)
CC1=CC[C@H](C)C(C)(C)C1/C=C/C(C)=C/CC[C@@]1(CO)[C@H](CCCO)/C(=C(/C)C=O)CC[C@]1(C)O (single isomer, unassigned; (-)) [Iripallidal]	decreased the viability of glioblastoma cell lines significantly	An increase Ras activity was observed	elevated both Ras levels	inhibited the proliferation	50-70%	bound	binds to RasGRP3	bound	does not effect the viability	micromolar to nanomolar range	induces phosphorylation of ERK1/2 in a Ras dependent manner	induced phosphorylation of ERK1/2
C=C(/C=C/C=C(/CCC=C(C)C)COC(C)=O)[C@@H]1CC[C@]2([C@H](CCCO)/C(=C(/C)C=O)CC[C@]2(C)O)[C@@H]1O [NSC 631941, reference compound]	–	–	–	–	–	bound	bound	–	–	–	induced phosphorylation of ERK1/2	–
